Experimental findings from ChEMBL document CHEMBL3244346, “Synthesis of spiro[isobenzofuran-1(3H),4'-piperidines] as potential central nervous system agents. 4. Central nervous system depressants” (J Med Chem, 1978) are described below.

The test system of data set [1] is Rattus norvegicus. Nature of the data set: Neuroleptic activity in ip dosed Long-Evans rat assessed as increase in escape failure. The class given is functional.
Data set [2] concerns Rattus norvegicus. The experiment in a line: Neuroleptic activity in ip dosed Long-Evans rat assessed as inhibition of pole-climb avoidance. In kind it is functional.
For data set [3], the system named is Rattus norvegicus. The experiment in a line: Neuroleptic activity in po dosed Long-Evans rat assessed as inhibition of pole-climb avoidance. The class given is functional.
Data set [4] concerns Rattus norvegicus. The experiment in a line: Neuroleptic activity in po dosed Long-Evans rat assessed as increase in escape failure. In kind it is functional.
In data set [5] the test system is Rattus norvegicus. The experiment in a line: Non-specific toxicity in Wistar rat assessed as inhibition of apomorphine hydrochloride-induced stereotypy at 25 mg/kg, sc administered 1 hr prior to apomorphine hydrochloride challenge measured after 5 to 20 mins. The class given is organism-based. The settings on record: in vivo. Further details: dose 25 mg/kg, route subcutaneous.

Data set [6] relates to Rattus norvegicus. The experiment in a line: Neuroleptic activity in po dosed Sprague-Dawley rat assessed as inhibition of Sidman avoidance measured for 4 to 6 hrs. In kind it is functional.
Data set [7] has as its system Squirrel monkey. The experiment in a line: Neuroleptic activity in squirrel monkey assessed as inhibition of Sidman avoidance at 10 mg/kg, po measured for 4 hrs. The conditions noted are these: Saimiri sciureus, in Primates. The class given is functional.
Data set [8] deals with Squirrel monkey. The experiment in a line: Neuroleptic activity in squirrel monkey assessed as inhibition of Sidman avoidance at 20 mg/kg, po measured for 4 hrs in presence of anticholinergic agent benztropine. The class given is functional, organism-based. Further details: dose 20 mg/kg. The settings on record: Saimiri sciureus.
Data set [9] has as its system Squirrel monkey. Nature of the data set: Neuroleptic activity in squirrel monkey assessed as inhibition of Sidman avoidance at 20 mg/kg, po measured for 4 hrs. In kind it is functional. The conditions noted are these: Saimiri sciureus, in Primates.
The test system of data set [10] is Rattus norvegicus. The experiment in a line: Non-specific toxicity in ip dosed Wistar rat assessed as inhibition of amphetamine-induced circling administered 60 mins prior to amphetamine challenge. The conditions noted are these: in vivo, 1 h. The class given is organism-based.
For data set [11], the system named is Squirrel monkey. Nature of the data set: Neuroleptic activity in squirrel monkey assessed as inhibition of Sidman avoidance at 5 mg/kg, po measured for 4 hrs. In kind it is functional. The conditions noted are these: Saimiri sciureus, in Primates.
Data set [12] relates to Canis familiaris. The experiment in a line: Ratio of compound ED50 to haloperidol ED50 for non-specific toxicity in po dosed Beagle dog assessed as inhibition of apomorphine hydrochloride-induced emesis. The class given is organism-based, Canis lupus familiaris. The settings on record: in vivo.
Data set [13] has as its system Rattus norvegicus. The experiment in a line: Non-specific toxicity in ip dosed Wistar rat assessed as inhibition of d-amphetamine sulfate-induced stereotypy administered 1 hr prior to d-amphetamine sulfate challenge measured after 55 to 65 mins. The class given is organism-based. The conditions noted are these: in vivo.
Data set [14] concerns Canis familiaris. The experiment in a line: Non-specific toxicity in po dosed Beagle dog assessed as inhibition of apomorphine hydrochloride-induced emesis. In kind it is organism-based, Canis lupus familiaris. The settings on record: in vivo.
Data set [15] concerns Rattus norvegicus. Nature of the data set: Neuroleptic activity in ip dosed Sprague-Dawley rat assessed as inhibition of Sidman avoidance measured for 4 to 6 hrs. In kind it is functional.
In data set [16] the test system is Rattus norvegicus. The experiment in a line: Increase in amphetamine-induced circling in Wistar rat at 5 mg/kg, ip administered 60 mins prior to amphetamine challenge. In kind it is functional. The conditions noted are these: route intraperitoneal.
In data set [17] the test system is Canis familiaris. The experiment in a line: Non-specific toxicity in Beagle dog assessed as inhibition of apomorphine hydrochloride-induced emesis at 0.5 mg/kg, po. In kind it is organism-based. Further details: dose 0.5 mg/kg, route oral. The settings on record: Canis lupus familiaris.
Data set [18] has as its system Rattus norvegicus. Nature of the data set: Neuroleptic activity in Sprague-Dawley rat assessed as inhibition of Sidman avoidance at 20 mg/kg, ip relative to control. The settings on record: route intraperitoneal. In kind it is functional.
Data set [19] has as its system Rattus norvegicus. Nature of the data set: Non-specific toxicity in sc dosed Wistar rat assessed as inhibition of apomorphine hydrochloride-induced stereotypy administered 1 hr prior to apomorphine hydrochloride challenge measured after 5 to 20 mins. The settings on record: in vivo. The class given is organism-based.
For data set [20], the system named is Squirrel monkey. The experiment in a line: Neuroleptic activity in squirrel monkey assessed as inhibition of Sidman avoidance at 0.75 mg/kg, po measured for 4 hrs. The class given is functional. The conditions noted are these: Saimiri sciureus, in Primates.
Data set [21] is filed under the species Rattus norvegicus. Nature of the data set: animal or person. The conditions noted are these: Sprague-Dawley, po, read-out: INH.
Description: Neuroleptic activity in Sprague-Dawley rat assessed as inhibition of Sidman avoidance at 1.25 mg/kg, po relative to control
The subject of data set [22] is Squirrel monkey. The experiment in a line: Neuroleptic activity in squirrel monkey assessed as inhibition of Sidman avoidance at 1 mg/kg, po measured for 4 hrs. In kind it is functional. The settings on record: Saimiri sciureus, in Primates.
Data set [23] deals with Rattus norvegicus. Nature of the data set: Neuroleptic activity in Long-Evans rat assessed as inhibition of pole-climb avoidance at 5 mg/kg, ip relative to control. The class given is functional. The settings on record: route intraperitoneal.
The test system of data set [24] is Squirrel monkey. The experiment in a line: Neuroleptic activity in squirrel monkey assessed as inhibition of Sidman avoidance at 2.5 mg/kg, po measured for 4 hrs. In kind it is functional. The conditions noted are these: Saimiri sciureus, in Primates.

Structures are written as SMILES. Calls of active or inactive are those of the source. No cut-off for these calls is given here.

As to `CN1C(=O)CN=C(c2ccccc2)c2cc(Cl)ccc21` [DIAZEPAM], the ED50 (usually the dose at which the effect has come halfway, by size or by number of responders) was 24.5 mg/kg with Rattus norvegicus [1] and 13.4 mg/kg with Rattus norvegicus [2].

`O=C(CCCN1CCC2(CC1)OC(c1ccc(F)cc1)c1ccccc12)c1ccc(F)cc1` (configuration not stated): the ED50 in the data set with Rattus norvegicus [3] is 4.3 mg/kg; with Rattus norvegicus [4], 16.2 mg/kg; in the data set with Rattus norvegicus [6] it was 3.7 mg/kg; with Rattus norvegicus [10] it was 11.9 mg/kg; with Rattus norvegicus [13], 11.8 mg/kg; in the data set on Canis familiaris [14], above 5 mg/kg. In addition, in the data set with Rattus norvegicus [5], the Activity entry is “Non-toxic”. The inhibition in vivo at 10 mg/kg in the data set with Squirrel monkey [7] worked out at 17%. Moreover, the inhibition (as a rule, the change of the read-out against control, counted positive when it falls) in the data set with Squirrel monkey [8] is “inactive”. The inhibition in vivo at 20 mg/kg with Squirrel monkey [9] is 90%. Also, the inhibition in vivo at 5 mg/kg in the data set on Squirrel monkey [11] is 21%. In addition, the “Ratio ED50” value with Canis familiaris [12] is 10.

Regarding `COc1ccc2c(c1)C1(CCN(CCCC(=O)c3ccc(F)cc3)CC1)OC2c1ccccc1` (configuration not stated), the ED50 with Rattus norvegicus [6] was above 10 mg/kg. Also, the inhibition in vivo at 10 mg/kg in the data set with Squirrel monkey [7] worked out at 77%.

With `O=C(CCCN1CCC2(CC1)OC(c1ccc(Cl)cc1)c1ccccc12)c1ccc(F)cc1` (configuration not stated), the figures for the ED50 in the data set with Rattus norvegicus [15], with Canis familiaris [14] and in the data set on Rattus norvegicus [2] were above 10 mg/kg, above 10 mg/kg and above 20 mg/kg, respectively. Also, the Activity with Rattus norvegicus [16] is 47%.

Regarding `O=C(CCCN1CCC2(CC1)OC(c1ccc(F)cc1)c1ccc(F)cc12)c1ccc(F)cc1` (configuration not stated), the ED50 is 2.2 mg/kg in the data set with Rattus norvegicus [6], 9.7 mg/kg in the data set on Rattus norvegicus [10], above 40 mg/kg in the data set with Rattus norvegicus [1] and 18.6 mg/kg in the data set with Rattus norvegicus [2]. The inhibition at 0.5 mg/kg in the data set on Canis familiaris [17] was determined as 50%. Further, the “Ratio ED50” value in the data set on Canis familiaris [12] stood at 10.

Consider `O=C(CCCN1CCC2(CC1)OC(c1ccccc1)c1ccc(F)cc12)c1ccc(F)cc1` (configuration not stated), for which the ED50 amounted to 2.7 mg/kg with Rattus norvegicus [15]; 4.6 mg/kg in the data set on Rattus norvegicus [10]; 31.1 mg/kg in the data set with Rattus norvegicus [1]; 0.047 mg/kg in the data set on Canis familiaris [14]; 0.95 mg/kg in the data set on Rattus norvegicus [2].

On to `COc1ccc(C2OC3(CCN(CCCC(=O)c4ccc(F)cc4)CC3)c3ccccc32)cc1` (configuration not stated), for which the ED50 with Rattus norvegicus [6] is 3 mg/kg; in the data set with Rattus norvegicus [10] it was 10.2 mg/kg; with Rattus norvegicus [1], above 40 mg/kg; in the data set with Canis familiaris [14], 0.16 mg/kg; in the data set with Rattus norvegicus [2], 17.2 mg/kg.

Regarding `CSc1ccc2c(c1)N(CCC1CCCCN1C)c1ccccc1S2` (configuration not stated) [THIORIDAZINE], the ED50 with Rattus norvegicus [10] is 13.3 mg/kg; in the data set with Rattus norvegicus [1] it was above 60 mg/kg; in the data set with Rattus norvegicus [13] it was 15.8 mg/kg; in the data set on Rattus norvegicus [2], 13.8 mg/kg. In addition, in the data set on Rattus norvegicus [18], the inhibition in vivo at 20 mg/kg amounted to 15%.

Regarding `O=C(CCCN1CCC(O)(c2ccc(Cl)cc2)CC1)c1ccc(F)cc1` [HALOPERIDOL], the ED50 in the data set on Rattus norvegicus [19] came out at 0.2 mg/kg; in the data set on Rattus norvegicus [15], 0.35 mg/kg; in the data set on Rattus norvegicus [10], 0.1 mg/kg; with Rattus norvegicus [1], 7.3 mg/kg; in the data set on Rattus norvegicus [13], 0.21 mg/kg; with Canis familiaris [14], 0.06 mg/kg. Further, in the data set on Rattus norvegicus [2], the ED50 is 0.53 mg/kg. For the same compound, the inhibition in vivo at 0.75 mg/kg in the data set on Squirrel monkey [20] is 2%. Also, the inhibition in vivo at 1.25 mg/kg in the data set filed under Rattus norvegicus [21] was determined as 50%. The inhibition in vivo at 1 mg/kg in the data set on Squirrel monkey [22] was determined as 30%.

With `CCCC(C)C1(CC)C(=O)N=C([O-])NC1=O.[Na+]` (configuration not stated) [PENTOBARBITAL SODIUM], the ED50 in the data set with Rattus norvegicus [1] amounted to 24.1 mg/kg; in the data set with Rattus norvegicus [2] it was 23.7 mg/kg.

In the case of `O=C(CCCN1CCC2(CC1)OC(c1ccccc1)c1ccc(Cl)cc12)c1ccc(F)cc1` (configuration not stated), the ED50 in the data set with Rattus norvegicus [15] turned out to be 2.3 mg/kg; in the data set on Rattus norvegicus [10], 3.5 mg/kg; in the data set with Canis familiaris [14] it was 0.05 mg/kg. Besides, in the data set on Rattus norvegicus [23], the inhibition in vivo at 5 mg/kg stood at 47%.

Take `COc1ccc2c(c1)C(c1ccccc1)OC21CCN(CCCC(=O)c2ccc(F)cc2)CC1` (configuration not stated): the ED50 with Rattus norvegicus [15] was 9.5 mg/kg; with Rattus norvegicus [10], 9.9 mg/kg; in the data set with Rattus norvegicus [1] it was above 40 mg/kg; with Rattus norvegicus [13] it was 6.97 mg/kg; in the data set on Canis familiaris [14], above 1 mg/kg; in the data set with Rattus norvegicus [2], 9.8 mg/kg. For the same compound, the Activity entry in the data set with Rattus norvegicus [5] is “Non-toxic”. Further, the “Ratio ED50” value in the data set on Canis familiaris [12] was found to be 10. In addition, the inhibition in vivo at 2.5 mg/kg with Squirrel monkey [24] was 29%.

For `CN(C)CCCN1c2ccccc2Sc2ccc(Cl)cc21` [CHLORPROMAZINE], the ED50 was found to be 5.4 mg/kg in the data set on Rattus norvegicus [19]; 2.3 mg/kg in the data set with Rattus norvegicus [15]; 7.5 mg/kg in the data set on Rattus norvegicus [6]; 2.2 mg/kg in the data set with Rattus norvegicus [10]; 9 mg/kg in the data set with Rattus norvegicus [1]; 1.7 mg/kg in the data set on Rattus norvegicus [13]. For the same compound, the values for the ED50 in the data set on Canis familiaris [14] and in the data set on Rattus norvegicus [2] were 12.8 mg/kg and 5.2 mg/kg, respectively. Further, the inhibition in vivo at 5 mg/kg with Squirrel monkey [11] is 54%. For the same compound, in the data set with Squirrel monkey [24], the inhibition in vivo at 2.5 mg/kg was determined as 11%.

For the compound `O=C(CCCN1CCC2(CC1)OC(c1ccccc1)c1ccccc12)c1ccc(F)cc1` (configuration not stated), the ED50 with Rattus norvegicus [15] was 6.2 mg/kg; with Rattus norvegicus [6], 4.8 mg/kg; in the data set with Rattus norvegicus [10] it was 2.6 mg/kg; with Rattus norvegicus [1], above 40 mg/kg; in the data set with Canis familiaris [14], 0.15 mg/kg; with Rattus norvegicus [2], 8.6 mg/kg.
